Measurements published in patent US7816522B2, “Triazolone derivatives” (Eisai Co., Ltd., priority 2006, dated 2010).

molecular target: T1, human clotting factor VIIa (Homo sapiens, UniProt P08709); test: Inhibitory activity against clotting factor VIIa (chromogenic substrate Spectrozyme FVIIa, TF/Factor VIIa enzyme solution); format: biochemical; settings: human Factor VIIa 5 nmol/L with human TF 10 nmol/L, room temperature 40 minutes, 405 nm
T1 construct: a human clotting factor VIIa (hereinafter, “Factor VIIa”) purified sample; purchased Enzyme Research Laboratories HFVIIa
T1 sequence (P08709 213-466 limits assumed): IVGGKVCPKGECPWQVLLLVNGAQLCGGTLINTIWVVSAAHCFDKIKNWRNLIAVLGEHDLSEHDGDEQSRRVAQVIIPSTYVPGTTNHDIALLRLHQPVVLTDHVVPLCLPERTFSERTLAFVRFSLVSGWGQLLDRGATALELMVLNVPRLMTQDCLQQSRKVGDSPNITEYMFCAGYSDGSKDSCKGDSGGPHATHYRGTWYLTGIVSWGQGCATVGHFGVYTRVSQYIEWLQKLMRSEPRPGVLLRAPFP
T1 sequence (P08709 61-212 limits assumed): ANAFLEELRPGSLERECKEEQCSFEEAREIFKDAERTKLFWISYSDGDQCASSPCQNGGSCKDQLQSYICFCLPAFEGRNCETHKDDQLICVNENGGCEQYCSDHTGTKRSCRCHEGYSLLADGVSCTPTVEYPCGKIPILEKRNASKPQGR
T1 sequence (P13726 33-295 partner): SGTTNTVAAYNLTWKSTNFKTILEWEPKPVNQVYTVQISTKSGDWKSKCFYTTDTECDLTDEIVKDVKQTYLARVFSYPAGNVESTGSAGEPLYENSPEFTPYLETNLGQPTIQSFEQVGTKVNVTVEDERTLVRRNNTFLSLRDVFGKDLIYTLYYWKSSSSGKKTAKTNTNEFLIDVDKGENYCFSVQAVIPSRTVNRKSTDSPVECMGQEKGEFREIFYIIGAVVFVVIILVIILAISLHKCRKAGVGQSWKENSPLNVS
Method: [Inhibitory Activity Against Clotting Factor VIIa]
Dimethylsulfoxide (DMSO) solutions were prepared with compounds of the invention at concentration of 10 mmol/L (10 mmol/L compound solutions).
One packet of tris-hydroxymethylaminomethane-preset (hereinafter referred to as “Tris preset”) (Product of Sigma Corp., Catalog No. T8293), 8.8 g of sodium chloride (NaCl) and 1 g of bovine serum albumin (hereinafter abbreviated as “BSA”) were dissolved in 1 L of water to prepare a Tris-BSA buffer (100 mmol/L Tris, 0.15 mol/L NaCl, 0.1% BSA, pH 7.4).
This Tris-BSA buffer (180 μL) was added to the aforementioned 10 mmol/L compound solution (20 μL). A 10-fold dilution series was prepared for this mixture using the aforementioned Tris-BSA buffer, and solutions with the compound at concentrations of 1.0 mmol/L, 100, 10, 1, 0.1, 0.01 and 0.001 μmol/L were prepared (1.0 mmol-0.001 μmol/L compound solutions). As a control, a solution was prepared by 10-fold dilution of DMSO with the Tris-BSA buffer (hereinafter referred to as “control 10% solution”).
After dissolving one packet of Tris preset, NaCl (8.8 g) and BSA (1 g) in water (about 900 mL), there were added 1 mol/L aqueous calcium chloride (CaCl2) (15 mL) and 1 mg/mL aqueous cephalin (30 mL), and the total volume was brought to 1 L by adding water. To this solution there was added a human tissue factor (hereinafter, “TF”) sample (product of Calbiochem, Catalog No. 612151) (450 μg) to a TF sample concentration of 10 nmol/L, and then a human clotting factor VIIa (hereinafter, “Factor VIIa”) purified sample (product of Enzyme Research Laboratories, Catalog No. HFVIIa) (250 μg) was added to a Factor VIIa purified sample concentration of 5 nmol/L, to prepare an enzyme solution (100 mmol/L Tris-HCl, 0.15 mol/L NaCl, 15 mmol/L CaCl2, 30 μg/mL cephalin, 1 mg/mL BSA, 10 nmol/L TF, 5 nmol/L Factor VIIa).
To 110 μL of this enzyme solution there was added 15 μL of each of the 1.0 mmol-0.001 μmol/L compound solutions, and then 25 μL of a 1.0 mmol/L synthetic chromogenic substrate solution (Spectrozyme FVIIa, product of American Diagnostica, Catalog No. 217L) was added and the mixture was allowed to stand at room temperature for 40 minutes. Next, the amount of 4-nitroanilide released into the solution was quantitated by spectrophotometry (405 nm).
A control measurement was conducted in the same manner, using the control 10% solution instead of the compound solution.
This measurement yielded the enzyme reaction inhibition in the presence of 100 μmol/L to 0.1 nmol/L of each compound of the invention.
The enzyme reaction inhibition at each compound concentration was subjected to non-linear regression analysis, and the IC50 value for inhibitory activity of each compound against clotting factor VIIa was calculated.

**Q.** COc1cc(C(Nc2ccc(C(=N)N)cc2)c2nn(-c3ncccn3)c(=O)[nH]2)cc(CC#N)c1OC (racemic) [Example 26, (R) and (S)-4-{[(3-cyanomethyl-4,5-dimethoxyphenyl)-(5-oxo-1-pyrimidin-2-yl-4,5-dihydro-1H-[1,2,4]triazol-3-yl)methyl]amino}benzamidine acetate] was tested. Which IC50 did it give?
**A.** 5.4 nM

**Q.** With CCc1cc(C(Nc2ccc(C(=N)N)cc2)c2nn(-c3ncccn3)c(=O)[nH]2)cc2c1OCOC2 (racemic) [Example 27, (R) and (S)-4-{[(8-ethyl-4H-benzo[1,3]dioxin-6-yl)-(5-oxo-1-pyrimidin-2-yl-4,5-dihydro-1H-[1,2,4]triazol-3-yl)methyl]amino}benzamidine acetate] as the molecule, how does the IC50 read?
**A.** 3.1 nM

**Q.** CCOc1cc(C(Nc2ccc(C(=N)N)cc2)c2nn(-c3ncccn3)c(=O)[nH]2)cc2c1OCOC2 (racemic) [Example 28, (R) and (S)-4-{[(8-ethoxy-4H-benzo[1,3]dioxin-6-yl)-(5-oxo-1-pyrimidin-2-yl-4,5-dihydro-1H-[1,2,4]triazol-3-yl)methyl]amino}benzamidine acetate] was tested. Which IC50 did it give?
**A.** 8.9 nM

**Q.** For COc1cc(C(Nc2ccc(C(=N)N)cc2)c2nn(-c3ncccc3F)c(=O)[nH]2)cc2c1OCCC2 (racemic) [Example 29, (R) and (S)-4-({[1-(3-fluoropyridin-2-yl)-5-oxo-4,5-dihydro-1H-[1,2,4]triazol-3-yl]-(8-methoxychroman-6-yl)methyl}amino)benzamidine acetate], which IC50 is on record?
**A.** 2.7 nM

**Q.** COc1cc(C(Nc2ccc(C(=N)N)cc2)c2nn(-c3ncccc3F)c(=O)[nH]2)cc2c1OCCCO2 (racemic) [Example 30, (R) and (S)-4-({[1-(3-fluoropyridin-2-yl)-5-oxo-4,5-dihydro-1H-[1,2,4]triazol-3-yl]-(9-methoxy-3,4-dihydro-2H-benzo[b][1,4]dioxepin-7-yl)methyl}amino)benzamidine acetate] was tested. Which IC50 did it give?
**A.** 3.9 nM

**Q.** With COc1cc(C(Nc2ccc(C(=N)N)cc2)c2nn(-c3ncccn3)c(=O)[nH]2)cc2c1OCC2 (racemic) [Example 31, (R) and (S)-4-{[(7-methoxy-2,3-dihydrobenzofuran-5-yl)-(5-oxo-1-pyrimidin-2-yl-4,5-dihydro-1H-[1,2,4]triazol-3-yl)methyl]amino}benzamidine acetate] as the molecule, how does the IC50 read?
**A.** 7.1 nM

**Q.** Which IC50 does the source give for COc1cc(C(Nc2ccc(C(=N)N)cc2)c2nn(-c3ncccn3)c(=O)[nH]2)c(F)c2c1OCOC2 (racemic) [Example 32, (R) and (S)-4-{[(5-fluoro-8-methoxy-4H-benzo[1,3]dioxin-6-yl)-(5-oxo-1-pyrimidin-2-yl-4,5-dihydro-1H-[1,2,4]triazol-3-yl)methyl]amino}benzamidine acetate] here?
**A.** 11.6 nM

**Q.** Which IC50 does the source give for COc1cc(C(Nc2ccc(C(=N)N)cc2)c2nn(-c3ncccn3)c(=O)[nH]2)c(F)c2c1OCCC2 (racemic) [Example 33, (R) and (S)-4-{[(5-fluoro-8-methoxychroman-6-yl)-(5-oxo-1-pyrimidin-2-yl-4,5-dihydro-1H-[1,2,4]triazol-3-yl)methyl]amino}benzamidine acetate] here?
**A.** 6.7 nM

**Q.** With COc1cc(C(Nc2ccc(C(=N)N)cc2)c2nn(-c3ncccc3N)c(=O)[nH]2)cc2c1OCCCO2 (racemic) [Example 34, (R) and (S)-4-({[1-(3-aminopyridin-2-yl)-5-oxo-4,5-dihydro-1H-[1,2,4]triazol-3-yl]-(9-methoxy-3,4-dihydro-2H-benzo[b][1,4]dioxepin-7-yl)methyl}amino)benzamidine acetate] as the molecule, how does the IC50 read?
**A.** 3 nM

**Q.** Which IC50 does the source give for CCOc1cc(C(Nc2ccc(C(=N)N)cc2)c2nn(-c3ncccc3N)c(=O)[nH]2)ccc1OC (racemic) [Example 35, (R) and (S)-4-({[1-(3-aminopyridin-2-yl)-5-oxo-4,5-dihydro-1H-[1,2,4]triazol-3-yl]-(3-ethoxy-4-methoxyphenyl)methyl}amino)benzamidine acetate] here?
**A.** 6.8 nM

**Q.** With COc1ccc(C(Nc2ccc(C(=N)N)cc2)c2nn(-c3ccccc3C(=O)O)c(=O)[nH]2)cc1OC (racemic) [Example 36, (R) and (S)-2-{3-[(4-carbamimidoylphenylamino)-(3,4-dimethoxyphenyl)methyl]-5-oxo-4,5-dihydro-[1,2,4]triazol-1-yl}benzoic acid acetate] as the molecule, how does the IC50 read?
**A.** 3.8 nM

**Q.** Which IC50 does the source give for COc1ccc(C(Nc2ccc(C(=N)N)c(F)c2)c2nn(-c3ccccc3C(=O)O)c(=O)[nH]2)cc1OC (racemic) [Example 37, (R) and (S)-2-{3-[(4-carbamimidoyl-3-fluorophenylamino)-(3,4-dimethoxyphenyl)methyl]-5-oxo-4,5-dihydro-[1,2,4]triazol-1-yl}benzoic acid acetate] here?
**A.** 4.4 nM

**Q.** How did the IC50 turn out when COc1cc(C(Nc2ccc(C(=N)N)cc2)c2nn(-c3ccccc3C(=O)O)c(=O)[nH]2)cc(C)n1 (racemic) [Example 38, (R) and (S)-2-{3-[(4-carbamimidoylphenylamino)-(2-methoxy-6-methylpyridin-4-yl)methyl]-5-oxo-4,5-dihydro-[1,2,4]triazol-1-yl}benzoic acid acetate] was run?
**A.** 7.4 nM

**Q.** How did the IC50 turn out when COc1cc(C(Nc2ccc(C(=N)N)cc2)c2nn(-c3ncccn3)c(=O)[nH]2)cc(C)n1 (racemic) [Example 39, (R) and (S)-4-{[(2-methoxy-6-methyl-pyridin-4-yl)-(5-oxo-1-pyrimidin-2-yl-4,5-dihydro-1H-[1,2,4]triazol-3-yl)methyl]amino}benzamidine acetate] was run?
**A.** 20.6 nM

**Q.** COc1cc(C(Nc2ccc(C(=N)N)cc2)c2nn(-c3ncccn3)c(=O)[nH]2)c(F)c2c1OCC2 (racemic) [Example 40, (R) and (S)-4-{[(4-fluoro-7-methoxy-2,3-dihydrobenzofuran-5-yl)-(5-oxo-1-pyrimidin-2-yl-4,5-dihydro-1H-[1,2,4]triazol-3-yl)methyl]amino}benzamidine acetate] was tested. Which IC50 did it give?
**A.** 9 nM

**Q.** For COc1cc(C(Nc2ccc(C(=N)N)cc2)c2nn(-c3ncccn3)c(=O)[nH]2)c(F)c2c1OCCO2 (racemic) [Example 41, (R) and (S)-4-{[(5-fluoro-8-methoxy-2,3-dihydrobenzo[1,4]dioxin-6-yl)-(5-oxo-1-pyrimidin-2-yl-4,5-dihydro-1H-[1,2,4]triazol-3-yl)methyl]amino}benzamidine acetate], which IC50 is on record?
**A.** 6.4 nM

**Q.** With COc1cc(C(Nc2ccc(C(=N)N)cc2)c2nn(-c3ncccn3)c(=O)[nH]2)c(F)c2c1OCCCO2 (racemic) [Example 42, (R) and (S)-4-{[(6-fluoro-9-methoxy-3,4-dihydro-2H-benzo[b][1,4]dioxepin-7-yl)-(5-oxo-1-pyrimidin-2-yl-4,5-dihydro-1H-[1,2,4]triazol-3-yl)methyl]amino}benzamidine acetate] as the molecule, how does the IC50 read?
**A.** 3.6 nM

**Q.** With Cc1cc(OC2CCN(C)CC2)cc(C(Nc2ccc(C(=N)N)cc2)c2nn(-c3ncccn3)c(=O)[nH]2)c1 (racemic) [Example 43, (R) and (S)-4-({[3-methyl-5-(1-methylpiperidin-4-yloxy)phenyl]-(5-oxo-1-pyrimidin-2-yl-4,5-dihydro-1H-[1,2,4]triazol-3-yl)methyl}amino)benzamidine diacetate] as the molecule, how does the IC50 read?
**A.** 7.9 nM

**Q.** With Cc1cc(OCC(=O)N(C)C)cc(C(Nc2ccc(C(=N)N)cc2)c2nn(-c3ncccn3)c(=O)[nH]2)c1 (racemic) [Example 44, (R) and (S)-2-{3-[(4-carbamimidoylphenylamino)-(5-oxo-1-pyrimidin-2-yl-4,5-dihydro-1H-[1,2,4]triazol-3-yl)methyl]-5-methylphenoxy}-N,N-dimethylacetamide acetate] as the molecule, how does the IC50 read?
**A.** 25.7 nM

**Q.** For C=Cc1cc(O[C@H]2CCOC2)cc(C(Nc2ccc(C(=N)N)cc2)c2nn(-c3ncccn3)c(=O)[nH]2)c1 (mixture of isomers) [Example 45(1), 4-[((R) and (S)-(5-oxo-1-pyrimidin-2-yl-4,5-dihydro-1H-[1,2,4]triazol-3-yl)-{3-[(S)-(tetrahydrofuran-3-yl)oxy]-5-vinylphenyl}methyl)amino]benzamidine acetate], which IC50 is on record?
**A.** 1.3 nM

**Q.** C#Cc1cc(O[C@H]2CCOC2)cc(C(Nc2ccc(C(=N)N)cc2)c2nn(-c3ncccn3)c(=O)[nH]2)c1 (mixture of isomers) [Example 45(2), 4-[((R) and (S)-{3-ethynyl-5-[(S)-(tetrahydrofuran-3-yl)oxy]phenyl}-(5-oxo-1-pyrimidin-2-yl-4,5-dihydro-1H-[1,2,4]triazol-3-yl)methyl)amino]benzamidine acetate] was tested. Which IC50 did it give?
**A.** 1.5 nM
